Read-outs that look alike come from different tables or passages of the source.
Experiments:
[1] = Blood ^14C‐concentrations study; assay type: in vivo, Crl:CD1(ICR) mice; settings: 1 mg/kg single oral
Experimental: Crl:CD1(ICR) mice at the age of 7 weeks were purchased from Charles River Laboratories Japan, Inc., Hino Breeding Center. The mice at the age of 8 or 9 weeks were dosed after completing a 7‐day quarantine period and an additional 0‐ to 7‐day acclimatization period. All animal experiments were conducted in accordance with the Guidance for the Care and Use of Laboratory Animals in our laboratory, which corresponds to the Guidelines for Proper Conduct of Animal Experiments (Science Council of Japan). Animals were maintained under constant environmental conditions: room temperature, 21−25°C; relative humidity, 55% ±15%; ventilation, 10 air exchanges per hour; and artificial lighting, from 8:00 am to 8:00 pm. The animals were provided with pelleted diet and water ad libitum. […] All animals were euthanized by bleeding from the abdominal artery under anesthesia.
[^14C]Epyrifenacil was isotopically diluted with the unlabeled test compound to adjust the specific activity to 5.00 MBq/mg. After evaporation of the solvent under nitrogen gas flow, labeled material was suspended in 0.5% (w/v) methylcellulose solution at a concentration of 1 mg/5 ml by grinding in a mortar. The suspension was stored frozen until the start of dosing. […] These dosing suspensions were stored in a refrigerator until dosing commenced.
Two mice per sex at 8 weeks old were given a single oral dose of [^14C]epyrifenacil at 1 mg/kg. Approximately 0.06–0.08 g of blood sample was periodically taken from the saphenous vein at 1, 2, 4, and 8 h after administration, and transferred to vials to measure the radioactivity in whole blood. […] AUC0‐∞ was calculated as the sum of AUC0‐8 h and AUC8 h‐∞. AUC0‐8 h was obtained using a trapezoidal rule, and AUC8 h‐∞ was calculated with a mono‐exponential equation describing the ^14C‐disappearance phase.

[2] = Metabolite analysis in plasma, liver, and kidney (TLC); assay type: in vivo, Crl:CD1(ICR) mice; settings: for concentration at 2 h / Kp at 2 h: Crl:CD1(ICR), mouse, oral; for Kp at 2 h: liver and plasma, read-out: Liver/plasma ratio of S‐3100‐CA; for Kp at 2 h / S‐3100‐CA concentration in liver: 2 h
Description: Precoated silica gel 60 F254 chromatoplate (20 × 20 cm, 0.25‐ or 0.5‐mm layer thickness, Merck KGaA) was used for two‐dimensional thin layer chromatography (2D‐TLC) analysis. The solvent systems were ethyl formate/formic acid (95/5, v/v) for the first dimension, and ethyl acetate/acetic acid (95/5, v/v) for the second dimension. The radioactivity on the TLC plates was detected by autoradiography using an imaging plate processed with a fluoro‐image analyzer (FLA‐9500, GE Healthcare). The identity of the metabolites was confirmed by co‐chromatography in comparison with authentic metabolite standards.
Three mice per sex at 8 weeks old were given a single oral dose of [^14C]epyrifenacil at 1 mg/kg with or without co‐administration of OATP inhibitors. […] At 2 h after administration of [^14C]epyifenacil, the animals were euthanized by whole blood collection from the abdominal aorta under anesthesia with isoflurane. The sampling time point was selected as the time around T max based on the result of the blood ^14C‐concentration study. Then, the liver and kidney were dissected out, and the amount of ^14C was measured. Aliquots of heparinized blood samples were separated into blood cells and plasma by centrifugation at 2000g for 10 min at 4°C. The total weight of the liver and kidney was determined for each animal. Two aliquots of plasma and tissue samples (approximately 0.05–0.1 g) were weighed in a glass vial, and the radioactivity was measured.
Approximately 0.3 g of liver, kidney, and plasma samples were pooled, respectively, for each dose and gender to obtain samples for analysis. Pooled liver, kidney, and plasma (ca. 1 g each) samples were homogenized with an approximately 3‐fold volume (v/w) of methanol using the mixer mill MM400 (5 min, 25 cycles/second, Retsch GmbH) and centrifuged (10 000g, 5 min, 4°C) to separate the supernatants from the residues. The extraction was repeated one additional time. The supernatants obtained were pooled and labeled liver, kidney, and plasma extracts. These samples were concentrated and then subjected to TLC analysis. For calculation of extraction efficacy, the post‐extraction solids (PESs) from the tissues and plasma extracts were sampled in low potassium glass vials. PESs were solubilized with 3 M potassium hydroxide solution (approximately 1 ml), then bleached with 30% hydrogen peroxide solution, and finally mixed with 10 ml of Hionic‐Fluor to measure the radioactivity.

SMILES: CCOC(=O)COc1ncccc1Oc1cc(-n2c(=O)cc(C(F)(F)F)n(C)c2=O)c(F)cc1Cl [Epyrifenacil, ethyl[(3‐{2‐chloro‐4‐fluoro‐5‐[3‐methyl‐2,6‐dioxo‐4‐(trifluoromethyl)‐3,6‐dihydropyrimidin‐1(2H)‐yl]phenoxy}pyridin‐2‐yl)oxy]acetate]
- ^14C‐Concentration in blood ([1]; 1 h, Female Animal_1): 0.127 µg eq. of epyrifenacil/g
- ^14C‐Concentration in blood ([1]; 1 h, Female Animal_2): 0.073 µg eq. of epyrifenacil/g
- ^14C‐Concentration in blood ([1]; 1 h, Male Animal_1): 0.030 µg eq. of epyrifenacil/g
- ^14C‐Concentration in blood ([1]; 1 h, Male Animal_2): 0.030 µg eq. of epyrifenacil/g
- ^14C‐Concentration in blood ([1]; 2 h, Female Animal_1): 0.111 µg eq. of epyrifenacil/g
- ^14C‐Concentration in blood ([1]; 2 h, Female Animal_2): 0.064 µg eq. of epyrifenacil/g
- ^14C‐Concentration in blood ([1]; 2 h, Male Animal_1): 0.031 µg eq. of epyrifenacil/g
- ^14C‐Concentration in blood ([1]; 2 h, Male Animal_2): 0.034 µg eq. of epyrifenacil/g
- ^14C‐Concentration in blood ([1]; 4 h, Female Animal_1): 0.076 µg eq. of epyrifenacil/g
- ^14C‐Concentration in blood ([1]; 4 h, Female Animal_2): 0.060 µg eq. of epyrifenacil/g
- ^14C‐Concentration in blood ([1]; 4 h, Male Animal_1): 0.028 µg eq. of epyrifenacil/g
- ^14C‐Concentration in blood ([1]; 4 h, Male Animal_2): 0.051 µg eq. of epyrifenacil/g
- ^14C‐Concentration in blood ([1]; 8 h, Female Animal_1): 0.045 µg eq. of epyrifenacil/g
- ^14C‐Concentration in blood ([1]; 8 h, Female Animal_2): 0.061 µg eq. of epyrifenacil/g
- ^14C‐Concentration in blood ([1]; 8 h, Male Animal_1): 0.024 µg eq. of epyrifenacil/g
- ^14C‐Concentration in blood ([1]; 8 h, Male Animal_2): 0.033 µg eq. of epyrifenacil/g
- C max of ^14C in blood ([1]; female mice): 0.100 μg eq. of epyrifenacil/g
- C max of ^14C in blood ([1]; male mice): 0.040 μg eq. of epyrifenacil/g

SMILES: Cn1c(C(F)(F)F)cc(=O)n(-c2cc(Oc3cccnc3OCC(=O)O)c(Cl)cc2F)c1=O [S‐3100‐CA]
- concentration at 2 h ([2]; kidney, with rifampicin (OATP inhibitor) 200 mg/kg p.o., Female, 2 h after [^14C]Epyrifenacil 1 mg/kg p.o. + Rifampicin 200 mg/kg p.o., read-out: Metabolite concentration, Kidney): 50 ng/g
- concentration at 2 h ([2]; kidney, with rifampicin (OATP inhibitor) 200 mg/kg p.o., Male, 2 h after [^14C]Epyrifenacil 1 mg/kg p.o. + Rifampicin 200 mg/kg p.o., read-out: Metabolite concentration, Kidney): 73 ng/g
- concentration at 2 h ([2]; kidney, Female, 2 h after [^14C]Epyrifenacil 1 mg/kg p.o., read-out: Metabolite concentration, Kidney): 96 ng/g
- concentration at 2 h ([2]; kidney, Male, 2 h after [^14C]Epyrifenacil 1 mg/kg p.o., read-out: Metabolite concentration, Kidney): 55 ng/g
- concentration at 2 h ([2]; liver, with rifampicin (OATP inhibitor) 200 mg/kg p.o., Female, 2 h after [^14C]Epyrifenacil 1 mg/kg p.o. + Rifampicin 200 mg/kg p.o., read-out: Metabolite concentration, Liver): 660 ng/g
- concentration at 2 h ([2]; liver, with rifampicin (OATP inhibitor) 200 mg/kg p.o., Male, 2 h after [^14C]Epyrifenacil 1 mg/kg p.o. + Rifampicin 200 mg/kg p.o., read-out: Metabolite concentration, Liver): 1370 ng/g
- concentration at 2 h ([2]; liver, Female, 2 h after [^14C]Epyrifenacil 1 mg/kg p.o., read-out: Metabolite concentration, Liver): 3520 ng/g
- concentration at 2 h ([2]; liver, Male, 2 h after [^14C]Epyrifenacil 1 mg/kg p.o., read-out: Metabolite concentration, Liver): 4740 ng/g
- concentration at 2 h ([2]; plasma, with rifampicin (OATP inhibitor) 200 mg/kg p.o., Female, 2 h after [^14C]Epyrifenacil 1 mg/kg p.o. + Rifampicin 200 mg/kg p.o., read-out: Metabolite concentration, Plasma): 143 ng/g
- concentration at 2 h ([2]; plasma, with rifampicin (OATP inhibitor) 200 mg/kg p.o., Male, 2 h after [^14C]Epyrifenacil 1 mg/kg p.o. + Rifampicin 200 mg/kg p.o., read-out: Metabolite concentration, Plasma): 76 ng/g
- concentration at 2 h ([2]; plasma, Female, 2 h after [^14C]Epyrifenacil 1 mg/kg p.o., read-out: Metabolite concentration, Plasma): 68 ng/g
- concentration at 2 h ([2]; plasma, Male, 2 h after [^14C]Epyrifenacil 1 mg/kg p.o., pooled samples, read-out: Metabolite concentration, Plasma): 54 ng/g
- Share of ^14C in liver ([2]; all dose groups): over 70%
- Kp at 2 h ([2]; female, 1 mg/kg, females, epyrifenacil 1 mg/kg p.o. without inhibitors): 52
- Kp at 2 h ([2]; female, females, DGX co‐administrated (oral or intraperitoneal)): 50 to 56
- Kp at 2 h ([2]; female, females, RIF co‐administrated): 5
- S‐3100‐CA concentration in liver ([2]; females, RIF co‐administrated): 0.660 ppm
- Kp at 2 h ([2]; male, 1 mg/kg, males, epyrifenacil 1 mg/kg p.o. without inhibitors): 88
- Kp at 2 h ([2]; male, males, DGX co‐administrated (oral or intraperitoneal)): 89 to 139
- Kp at 2 h ([2]; male, males, RIF co‐administrated): 18
- S‐3100‐CA concentration in liver ([2]; males, RIF co‐administrated): 1.371 ppm
